Experimental data from article PMC12190640 (2025).

System: 37Cy3-74Cy5-riboSAM (RNA, riboswitch, Cy3-modified U at 37, Cy5-modified U at 74) GGGAAGAAAUAACAAUCAACGACGUAUCAUUGUGCCUCGCUUUCCGCGGGGCGAUAAGUCCUGAAGAAAGGGAUGAUAUGACAUAAGAACAUCGG
Assay: smFRET (TIRF)
Conditions: 50 mM Na+, 10 mM Tris-HCl pH 8.0, 25 °C, 0.5 mM SAM

With C[S+](CC[C@H](N)C(=O)O)C[C@H]1O[C@@H](n2cnc3c(N)ncnc32)[C@H](O)[C@@H]1O (some centres unmarked) the binding (2 mM Mg2+, stable EFRET ~0.8 population 18.5% to 37.6%) was “yes” and the binding (no Mg2+, no significant structural transition, same at 0.05 mM Mg2+) was “weak”.
